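Five compound concentrations were applied to cells in 96-well plates for 48 hours; endpoints were derived by simple linear interpolation of the resulting dose-response curve. TGI: concentration producing complete growth inhibition.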
Columns and labels:
Experiment in all cases: NCI anticancer screen, dose series, 48 h
HT29 colon = tested on: HT29 colon
786-0 renal = tested on: 786-0 renal
M14 melanoma = tested on: M14 melanoma
CCRF-CEM leukemia = tested on: CCRF-CEM leukemia
UO-31 renal = tested on: UO-31 renal
SR leukemia = tested on: SR leukemia
SK-MEL-5 melanoma = tested on: SK-MEL-5 melanoma
NCI-H23 lung = tested on: NCI-H23 lung
PC-3 prostate = tested on: PC-3 prostate
A498 renal = tested on: A498 renal
A549 NSCLC = tested on: A549 NSCLC
EKVX NSCLC = tested on: EKVX NSCLC
SNB-19 CNS = tested on: SNB-19 CNS
CAKI-1 renal = tested on: CAKI-1 renal
SF-539 CNS = tested on: SF-539 CNS
KM12 colon = tested on: KM12 colon
OVCAR-5 ovarian = tested on: OVCAR-5 ovarian
DU-145 prostate = tested on: DU-145 prostate
SF-268 CNS = tested on: SF-268 CNS

Structure (SMILES) | TGI (HT29 colon) | TGI (786-0 renal) | TGI (M14 melanoma) | TGI (CCRF-CEM leukemia) | TGI (UO-31 renal) | TGI (SR leukemia) | TGI (SK-MEL-5 melanoma) | TGI (NCI-H23 lung) | TGI (PC-3 prostate) | TGI (A498 renal) | TGI (A549 NSCLC) | TGI (EKVX NSCLC) | TGI (SNB-19 CNS) | TGI (CAKI-1 renal) | TGI (SF-539 CNS) | TGI (KM12 colon) | TGI (OVCAR-5 ovarian) | TGI (DU-145 prostate) | TGI (SF-268 CNS)
N#C[C@@]12CCCC(=O)[C@@H]1[C@H]1CCC[C@H]12 | 52.4 µM | 29.4 µM | 30.2 µM | 57.4 µM | 30 µM | 59.5 µM | 30.8 µM | 35 µM | 35.7 µM | 31.5 µM | 37 µM | 28.6 µM | 42.4 µM | 31.4 µM | 59.9 µM | 27.4 µM | 25.7 µM | 28.8 µM | 
CC1(C)N=C(/C=N/O)C(C)(C)N1O | > 100 µM | > 100 µM | > 100 µM | > 100 µM | > 100 µM | > 100 µM | > 100 µM | > 100 µM | > 100 µM | > 100 µM | > 100 µM | > 100 µM | > 100 µM |  | > 100 µM | > 100 µM | > 100 µM | > 100 µM | > 100 µM
CSc1ccc(/C=C2\N=C(c3ccccc3)N(c3nc4c(Cl)cc(Cl)cc4s3)C2=O)cc1 | 46.4 µM | > 100 µM | 62.9 µM | 43.3 µM | 47.9 µM | 50.3 µM | 34.9 µM |  | 43.3 µM | 40.8 µM | 53.4 µM | 49.9 µM | > 100 µM | > 100 µM | > 100 µM | 88.6 µM | > 100 µM | 93.7 µM | 86.3 µM
Cc1ccc(Nc2sc(C)cc2C#N)c([N+](=O)[O-])c1 |  | > 100 µM | > 100 µM | > 100 µM | > 100 µM | > 100 µM |  | > 100 µM | > 100 µM | > 100 µM | > 100 µM | > 100 µM | > 100 µM | > 100 µM | > 100 µM | > 100 µM | > 100 µM | > 100 µM | > 100 µM
CCN(CC)CCSc1nc2c(c(=N)n1-c1ccccc1)c(=S)n(-c1ccccc1)c(=S)n2-c1ccccc1 | 3.37 µM | 1.55 µM | 5 µM | 0.446 µM |  | 0.936 µM | 11.4 µM | 10.8 µM | 3.32 µM | 22.2 µM | 4.77 µM | 7.31 µM | 40.6 µM | 2.94 µM | 9.57 µM | 12.8 µM | 29 µM | 3.05 µM | 3.9 µM
Cc1ccc(S(=O)(=O)/N=C(\[O-])C2=C(c3ccccc3)NN(C)c3nc4cccc[n+]4nc32)cc1 | > 100 µM | > 100 µM | > 100 µM | > 100 µM | > 100 µM | > 100 µM | > 100 µM | > 100 µM | > 100 µM | > 100 µM | > 100 µM | > 100 µM | > 100 µM | > 100 µM | > 100 µM | > 100 µM | > 100 µM | > 100 µM | > 100 µM
O=C(N/N=C\c1ccc([N+](=O)[O-])cc1)Nc1cccc2ccccc12 | > 100 µM | 29.1 µM | > 100 µM | > 100 µM | > 79.8 µM | > 100 µM | > 100 µM | 61.9 µM | > 71.4 µM | 40.9 µM | > 100 µM | > 100 µM | 29.4 µM | 33.1 µM | 33 µM | > 100 µM | > 100 µM | > 100 µM | > 55.5 µM
CCn1c(-c2ccc(C)cc2)cs/c1=N\C(P(=O)(O)O)P(=O)(O)O | > 100 µM | > 100 µM | > 100 µM | > 100 µM | > 100 µM | > 100 µM | > 100 µM | > 100 µM | > 100 µM | > 100 µM | > 100 µM | > 100 µM | > 100 µM | > 100 µM | > 100 µM | > 100 µM | > 100 µM | > 100 µM | > 100 µM
COc1cc(C2SCC(=O)N2c2ccc(Cl)cc2)cc(I)c1O (configuration not stated) | > 100 µM | > 100 µM | > 100 µM | > 100 µM | > 100 µM | > 100 µM | > 100 µM | > 100 µM | > 100 µM | > 23.2 µM | > 100 µM | > 100 µM | > 100 µM | > 100 µM | > 100 µM | > 100 µM | > 100 µM | > 100 µM | > 100 µM
COc1cc2c(cc1OC)C(Cc1ccccc1CCCl)=NCC2 | > 100 µM | > 100 µM | > 100 µM | > 100 µM | > 100 µM | > 100 µM | 54.3 µM | > 100 µM | > 100 µM | > 100 µM | > 100 µM | > 100 µM | > 100 µM | > 100 µM | 48.6 µM | > 100 µM | > 100 µM | > 100 µM | > 100 µM
O=C1OC[C@@H]2Cc3c([nH]c4ccccc34)[C@@H](c3cc(O)c(O)c(O)c3)N12 | > 100 µM | 56.1 µM | 36.7 µM | 54.3 µM | > 100 µM | 61.9 µM | 29.2 µM | 98.6 µM | > 100 µM | 48 µM | > 100 µM | > 100 µM | 69.1 µM | > 100 µM | 37.9 µM | > 100 µM | 46.2 µM | > 100 µM | > 100 µM
N=c1oc2ccc(Cl)cc2cc1C(=O)NCc1ccccc1 | > 100 µM | > 100 µM | > 100 µM | > 54 µM | > 100 µM | > 100 µM | > 100 µM | > 100 µM | > 100 µM | > 100 µM | > 100 µM | > 100 µM | > 100 µM | > 100 µM | > 100 µM | > 100 µM | > 100 µM | > 100 µM | > 100 µM
